Source: PubChem BioAssay AID1963984 (Molecular Pharmacology Branch, DTP, NCI, 2024)

Test system: 233499-124-R-J3-PDC spheroids with HUVEC/MSC, viability
Test: Anticancer human tumor 233499-124-R-J3-PDC patient-derived colon adenocarcinoma cell line growth inhibition [PI3K]
Details: for IC50: curve of first compound; for viability, T/C: stronger effect = lower value
Outline: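 High-throughput combination screen: PI3K inhibitors crossed with targeted small molecules on complex spheroids of tumor cells, HUVEC and MSCs at 37 degrees C, 5% CO2. Top concentration was at or near clinical Cmax (otherwise 10 microM), with half-log decrements.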

[1] = second compound 0.0316 µM, first compound 0.0316 µM
[2] = second compound 0.0316 µM, first compound 0.1 µM
[3] = second compound 0.0316 µM, first compound 0.316 µM
[4] = second compound 0.0316 µM, first compound 1 µM
[5] = second compound 0.0316 µM, first compound 3.16 µM
[6] = second compound 0.0316 µM, first compound 10 µM
[7] = second compound 0.1 µM, first compound 0.0316 µM
[8] = second compound 0.1 µM, first compound 0.1 µM
[9] = second compound 0.1 µM, first compound 0.316 µM
[10] = second compound 0.1 µM, first compound 1 µM
[11] = second compound 0.1 µM, first compound 3.16 µM
[12] = second compound 0.1 µM, first compound 10 µM
[13] = second compound 0.316 µM, first compound 0.0316 µM
[14] = second compound 0.316 µM, first compound 0.1 µM
[15] = second compound 0.316 µM, first compound 0.316 µM
[16] = second compound 0.316 µM, first compound 1 µM
[17] = second compound 0.316 µM, first compound 3.16 µM
[18] = second compound 0.316 µM, first compound 10 µM
[19] = second compound 1 µM, first compound 0.0316 µM
[20] = second compound 1 µM, first compound 0.1 µM
[21] = second compound 1 µM, first compound 0.316 µM
[22] = second compound 1 µM, first compound 1 µM
[23] = second compound 1 µM, first compound 3.16 µM
[24] = second compound 1 µM, first compound 10 µM
[25] = second compound 3.16 µM, first compound 0.0316 µM
[26] = second compound 3.16 µM, first compound 0.1 µM
[27] = second compound 3.16 µM, first compound 0.316 µM
[28] = second compound 3.16 µM, first compound 1 µM
[29] = second compound 3.16 µM, first compound 3.16 µM
[30] = second compound 3.16 µM, first compound 10 µM
[31] = second compound 10 µM, first compound 0.0316 µM
[32] = second compound 10 µM, first compound 0.1 µM
[33] = second compound 10 µM, first compound 0.316 µM
[34] = second compound 10 µM, first compound 1 µM
[35] = second compound 10 µM, first compound 3.16 µM
[36] = second compound 10 µM, first compound 10 µM
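Also: spheroids exposed to agents for seven days before readout.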
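For viability, T/C in this document: percent viability relative to DMSO vehicle control taken as 100%.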

C#Cc1c(F)ccc2cc(O)cc(-c3ncc4c(N5CC6CCC(C5)N6)nc(OCC56CCCN5CC(F)C6)nc4c3F)c12 (stereo unspecified) + Cc1nc(NC(=O)N2CCCC2C(N)=O)sc1-c1ccnc(C(C)(C)C(F)(F)F)c1
IC50 (second compound 0.0316 µM): > 10 µM
IC50 (second compound 0.1 µM): > 10 µM
IC50 (second compound 0.316 µM): > 10 µM
IC50 (second compound 1 µM): 5.78 µM
IC50 (second compound 3.16 µM): 0.807 µM
IC50 (second compound 10 µM): < 0.0316 µM
viability, T/C [1]: 91.5%
viability, T/C [2]: 98.2%
viability, T/C [3]: 79.3%
viability, T/C [4]: 89.2%
viability, T/C [5]: 81.2%
viability, T/C [6]: 84.5%
viability, T/C [7]: 108%
viability, T/C [8]: 107%
viability, T/C [9]: 91.4%
viability, T/C [10]: 77.7%
viability, T/C [11]: 81%
viability, T/C [12]: 104%
viability, T/C [13]: 88.7%
viability, T/C [14]: 83%
viability, T/C [15]: 83%
viability, T/C [16]: 77.1%
viability, T/C [17]: 50.9%
viability, T/C [18]: 82.4%
viability, T/C [19]: 77.1%
viability, T/C [20]: 54.9%
viability, T/C [21]: 83.4%
viability, T/C [22]: 64.4%
viability, T/C [23]: 64.3%
viability, T/C [24]: 37.7%
viability, T/C [25]: 65.3%
viability, T/C [26]: 72%
viability, T/C [27]: 67%
viability, T/C [28]: 43.6%
viability, T/C [29]: 33.6%
viability, T/C [30]: 61.2%
viability, T/C [31]: 30.5%
viability, T/C [32]: 39%
viability, T/C [33]: 16.3%
viability, T/C [34]: 26.1%
viability, T/C [35]: 12.4%
viability, T/C [36]: 4.04%

C=CC(=O)N1CCN(c2nc(=O)n(-c3c(C)ccnc3C(C)C)c3nc(-c4c(O)cccc4F)c(F)cc23)C(C)C1 (stereo unspecified) + Cc1nc(NC(=O)N2CCCC2C(N)=O)sc1-c1ccnc(C(C)(C)C(F)(F)F)c1
IC50 (second compound 0.0316 µM): > 10 µM
IC50 (second compound 0.1 µM): > 10 µM
IC50 (second compound 0.316 µM): > 10 µM
IC50 (second compound 1 µM): > 10 µM
IC50 (second compound 3.16 µM): < 0.0316 µM
IC50 (second compound 10 µM): < 0.0316 µM
viability, T/C [1]: 89.3%
viability, T/C [2]: 94.8%
viability, T/C [3]: 99.3%
viability, T/C [4]: 106%
viability, T/C [5]: 100%
viability, T/C [6]: 85%
viability, T/C [7]: 84.8%
viability, T/C [8]: 96.3%
viability, T/C [9]: 93%
viability, T/C [10]: 81.4%
viability, T/C [11]: 79.5%
viability, T/C [12]: 80.2%
viability, T/C [13]: 95.2%
viability, T/C [14]: 96.7%
viability, T/C [15]: 70.1%
viability, T/C [16]: 82.2%
viability, T/C [17]: 67.5%
viability, T/C [18]: 92.6%
viability, T/C [19]: 71.7%
viability, T/C [20]: 92.2%
viability, T/C [21]: 79.4%
viability, T/C [22]: 77.3%
viability, T/C [23]: 80.9%
viability, T/C [24]: 79.8%
viability, T/C [25]: 39.4%
viability, T/C [26]: 51.1%
viability, T/C [27]: 71.8%
viability, T/C [28]: 34.1%
viability, T/C [29]: 60.9%
viability, T/C [30]: 67.9%
viability, T/C [31]: 24%
viability, T/C [32]: 41.6%
viability, T/C [33]: 24.9%
viability, T/C [34]: 41.8%
viability, T/C [35]: 37.6%
viability, T/C [36]: 27.2%

CC(Cn1ccc(-c2ccc(C#N)c(Cl)c2)n1)NC(=O)c1cc(C(C)O)[nH]n1 (stereo unspecified) + Cc1nc(NC(=O)N2CCCC2C(N)=O)sc1-c1ccnc(C(C)(C)C(F)(F)F)c1
IC50 (second compound 0.0316 µM): > 10 µM
IC50 (second compound 0.1 µM): > 10 µM
IC50 (second compound 0.316 µM): > 10 µM
IC50 (second compound 1 µM): > 10 µM
IC50 (second compound 3.16 µM): 5.95 µM
IC50 (second compound 10 µM): < 0.0316 µM
viability, T/C [1]: 88.9%
viability, T/C [2]: 81.6%
viability, T/C [3]: 101%
viability, T/C [4]: 97.3%
viability, T/C [5]: 95.6%
viability, T/C [6]: 85.6%
viability, T/C [7]: 102%
viability, T/C [8]: 106%
viability, T/C [9]: 98.7%
viability, T/C [10]: 108%
viability, T/C [11]: 72.6%
viability, T/C [12]: 92.5%
viability, T/C [13]: 55.1%
viability, T/C [14]: 74.3%
viability, T/C [15]: 105%
viability, T/C [16]: 100%
viability, T/C [17]: 86.7%
viability, T/C [18]: 77.6%
viability, T/C [19]: 77.2%
viability, T/C [20]: 76.5%
viability, T/C [21]: 83.7%
viability, T/C [22]: 50.5%
viability, T/C [23]: 63.6%
viability, T/C [24]: 81.9%
viability, T/C [25]: 61.8%
viability, T/C [26]: 53.8%
viability, T/C [27]: 59.7%
viability, T/C [28]: 64.6%
viability, T/C [29]: 39.6%
viability, T/C [30]: 52.5%
viability, T/C [31]: 30.7%
viability, T/C [32]: 33.9%
viability, T/C [33]: 35%
viability, T/C [34]: 42.2%
viability, T/C [35]: 21.9%
viability, T/C [36]: 38.9%
